Measurements published in ChEMBL document CHEMBL4184301, “Two new coumarins and a new xanthone from the leaves of Rhizophora mucronata” (Bioorg Med Chem Lett, 2018).

Columns and labels:
HeLa = experiment: Antiproliferative activity against human HeLa cells after 48 hrs by CCK8 assay; type: functional, cell-based
HL-60 = experiment: Antiproliferative activity against human HL60 cells after 48 hrs by CCK8 assay; type: functional, cell-based; conditions: HL-60, 48 h
[1] = Cytotoxicity against mouse NIH/3T3 cells after 48 hrs by CCK8 assay; type: cell-based, NIH3T3
[2] = Selectivity index, ratio of CC50 for mouse […] cells to IC50 for human HL60 cells; type: toxicity; conditions: NIH/3T3 cells (printed […]) and HL60 cells, read-out: Ratio CC50/IC50

Structure (SMILES) | IC50 (HeLa) [µM] | IC50 (HL-60) [µM] | CC50 at 48 h [1] [µM] | selectivity ratio [2]
C[C@@H]1C(=O)c2c(c3c(c4c(-c5ccccc5)cc(=O)oc24)OC(C)(C)C=C3)O[C@@H]1C | 21.6 | > 60 |  | 
C/C=C(\C)C(=O)c1c(OC)c2c(c3c(-c4ccccc4)cc(=O)oc13)OC1C2C1(C)C (stereo unspecified) | 29.9 | 2.6 | 22.3 | 8.6
CO[C@@]12[C@H](COC(N)=O)C3=C(C(=O)C(C)=C(N)C3=O)N1C[C@@H]1N[C@@H]12 [MITOMYCIN] | 1.13 | 0.19 |  | 
C=C(C)C(O)Cc1c(O)cc2c(=O)c3cccc(O)c3oc2c1O (stereo unspecified) | 14.5 | 36.8 |  | 
C[C@H]1Oc2c3c(c(C(=CC(=O)O)c4ccccc4)c(O)c2C(=O)[C@@H]1C)OC(C)(C)C=C3 (mixture of isomers) | > 60 | 24.5 |  | 
C[C@H]1Oc2c3c(c4c(-c5ccccc5)cc(=O)oc4c2C(=O)[C@@H]1C)OC(C)(C)C=C3 | 8.3 | 35.3 |  | 
O=c1cc(-c2ccc(O)cc2)oc2cc(O)cc(O)c12 [APIGENIN] | 21.3 | 22.3 |  | 
CC(=O)O[C@H]1C(=O)[C@@]2(C)[C@H]([C@H](OC(=O)c3ccccc3)[C@]3(O)C[C@H](OC(=O)[C@H](O)[C@@H](NC(=O)c4ccccc4)c4ccccc4)C(C)=C1C3(C)C)[C@]1(OC(C)=O)CO[C@@H]1C[C@@H]2O [PACLITAXEL] | 0.023 | 0.0026 |  | 
CC(C)=CCc1c2c(c3oc(=O)cc(-c4ccccc4)c3c1O)C(=O)[C@H](C)[C@@H](C)O2 [BRASIMARIN C] | 4.4 | 10.1 |  | 
C/C=C(\C)C(=O)c1c(O)c(/C(=C/C(=O)O)c2ccccc2)c2c(c1OC)C=CC(C)(C)O2 | 36.4 | 2.2 | 41.1 | 19.2
CC1(C)C=Cc2c(cc3oc4c(O)c(O)ccc4c(=O)c3c2O)O1 [JACAREUBIN] | 4.8 | 1 | 10.2 | 10.2

Now from value to molecule, other results behind:

IC50 (HeLa) [µM] | IC50 (HL-60) [µM] | Structure (SMILES) | CC50 at 48 h [1] [µM] | selectivity ratio [2]
21.2 | 35.6 | C[C@@H]1C(=O)c2c(O)c(C(=CC(=O)O)c3ccccc3)c3c(c2O[C@@H]1C)C=CC(C)(C)O3 (mixture of isomers) |  | 
42.8 | 18.3 | C/C=C(/C)C(=O)c1c2c(c(OC)c3c(-c4ccccc4)cc(=O)oc13)C=CC(C)(C)O2 |  | 
33 | 10.7 | COC(=O)C=C(c1ccccc1)c1c(O)c2c(c3c1OC(C)(C)C=C3)O[C@H](C)[C@@H](C)C2=O (mixture of isomers) |  | 
3.8 | 12.9 | CO[C@H]1c2c(c3c(c4c(-c5ccccc5)cc(=O)oc24)OC(C)(C)C=C3)O[C@H](C)[C@H]1C |  | 
37.1 | 6.3 | CC(C)=CCc1c(O)cc2oc3c(O)cccc3c(=O)c2c1O |  | 
5.3 | 51.2 | O=c1cc(-c2ccc(O)c(-c3c(O)cc(O)c4c(=O)cc(-c5ccc(O)cc5)oc34)c2)oc2cc(O)cc(O)c12 [AMENTOFLAVONE] |  | 
26 | 2.7 | CC1(C)C=Cc2c(cc3oc4c(O)cccc4c(=O)c3c2O)O1 | 25.3 | 9.4
> 60 | > 60 | O=C(O)c1cccc(O)c1O [2,3-DIHYDROXYBENZOIC ACID] |  | 
